According to patent US6861431B2, “Compounds capable of modulating the activity of multidrug transporters and therapeutic use of the same” (The Board of Trustees of the University of Illinois, priority 2001, dated 2005):
Where two headings read alike, the source gives them in different places. Starred links: 1 amine or outer side, 2 acyl side, 3 side chain; linkers in the order of their positions; H or OH if unused. Positions of bridges follow the written chain, without caps; N, C: chain ends. Non-standard residues stand in square brackets, D forms with d. Residues, ends and D or L forms follow the SMILES beside them. Chains are numbered I, II in the order given. Actinocin(9to1) = Cc1c2oc3c(C)ccc(C(=O)[*:1])c3nc-2c(C(=O)[*:2])c(N)c1=O; NMeV = CN[C@H](C(=O)O)C(C)C; Sar = CNCC(=O)O

Tests used:
P-gp [1] = tested on: P-gp
Procedure: (§1) Drug sensitivity assays. To estimate drug-mediated growth inhibition, 10^3 cells were plated per well of 96-well plates, and incubated with a range of concentrations of drugs added 24 hours after plating. After 5 to 7 hours of drug treatment, plates were fixed and stained using 2% methylene blue solution in 50% methanol. After elution by 1% SDS solution, optical density was determined on a Multiscan Ascent reader (Lybsystems, Helsinki, Finland) at 650 nm.
(§2) Drug accumulation and efflux assay. […] For drug efflux assay, cells after drug incubation were washed thoroughly with PBS, incubated in a drug-free media with or without compounds from the chemical library, and harvested at different time points for flow cytometric analysis (18).

ConA cells = experiment: Drug sensitivity (growth inhibition) assay, ConA cells; format: cell-based, mouse; settings: for Change in sensitivity (x-fold): Compound 102 (10 μM), fold resistance; for Effect of Compound 102 on drug sensitivity of cell lines: ConA (Balb 3T3): P-gp-positive ConA cells, label = drug
Procedure: as §1, with “After 5 to 7 hours of drug treatment, plates were fixed and stained using 2% methylene blue solution in 50% methanol.” left out

P-gp [2] = experiment: Rho123 accumulation in ConA cells; format: cell-based, mouse; parameters: effect on Rho123 efflux/accumulation: dose or concentration left out as unconfirmed; settings: two hours with Rho123, flow cytometry (FIG. 8)
Procedure: Screening of a chemical library. Murine fibroblastoid cell line (ConA) was selected as the readout system for screening a chemical library for P-gp activators. […] Rho123, a classic fluorescent P-gp substrate that is detected easily using multichannel fluorimeter in living cells, was used as an efflux indicator. […] Primary screening was performed on ConA cells for compounds that interfere with Adr-induced activation of p53-responsive reporter LacZ gene as previously described (11). To identify P-gp modulators, all “hits” isolated after primary screening were tested for their ability to modulate cellular accumulation of Rho123. Con A cells grown in 96-well plates were incubated 4 hours with 0.5 μM Rho123 in combination with individual library compounds (2 μg/ml (2-5 μM)), and cell fluorescence was analyzed using fluorescent microscopy.
as §2
(§3) ConA cells were incubated two hours with Rho123 ([…]) or daunorubicin (500 ng/ml) in the presence of the identified compounds, and accumulation of the drugs was quantitated by flow cytometry.

P-gp [3] = experiment: Daunorubicin accumulation in ConA cells; format: cell-based, mouse; settings: for effect on daunorubicin accumulation: ConA cells, two hours with daunorubicin (500 ng/ml), flow cytometry (FIG. 8)
Procedure: Drug accumulation and efflux assay. […] For drug efflux assay, cells after drug incubation were washed thoroughly with PBS, incubated in a drug-free media with or without compounds from the chemical library, and harvested at different time points for flow cytometric analysis (18). […]
as §3

mouse ConA cells = experiment: DMBA sensitivity of mouse cells; format: cell-based
Procedure: The effect of the identified compounds on DMBA sensitivity of mouse cells also was tested. It has been reported that ABC type transporters (e.g., P-gp) are involved in the efflux of polycyclic aromatic hydrocarbon carcinogens from cells. The effect of the identified compounds on sensitivity of mouse cells to 7,12-dimethylbenz[a]anthracene (DMBA) was determined. […].

[4] = label = P-gp substrate drug, three groups

## Cc1c2oc3c(C)ccc(C(=O)N[C@@H]4C(=O)N[C@H](C(C)C)C(=O)N5CCC[C@H]5C(=O)N(C)CC(=O)N(C)[C@@H](C(C)C)C(=O)O[C@@H]4C)c3nc-2c(C(=O)N[C@@H]2C(=O)N[C@H](C(C)C)C(=O)N3CCC[C@H]3C(=O)N(C)CC(=O)N(C)[C@@H](C(C)C)C(=O)O[C@@H]2C)c(N)c1=O [Actinomycin D, actinomycin D] (I: T[dV]P[Sar][NMeV] / II: T[dV]P[Sar][NMeV]; ester I:1-I:C, II:1-II:C; linker I:N-II:N via Actinocin(9to1))
P-gp [1]
  cytotoxicity of the drug in the presence of Compound 102: do not change their cytotoxicity
ConA cells; ConA cells
  Change in sensitivity (x-fold): 1 x-fold
ConA cells; ConA cells, drug alone
  LD50: 20 ng/mL
ConA cells; ConA cells, drug in the presence of Compound 102 (10 μM)
  LD50 comp: 20 ng/mL

## CN[C@H]1CCc2cc(OC)c(OC)c(OC)c2-c2ccc(OC)c(=O)cc21 [Colcemide, colcemid]
P-gp [1]; [4]
  cytotoxicity of the drug in the presence of Compound 102: do not change their cytotoxicity

## COc1cc2c(c(OC)c1OC)-c1ccc(OC)c(=O)cc1[C@@H](NC(C)=O)CC2 [Colchicine, colchicine]
ConA cells
  Effect of Compound 102 on drug sensitivity of cell lines: ConA (Balb 3T3): S

## Cc1cc(C)n(CC(O)Cn2c3ccccc3c3ccccc32)n1 (centres unmarked) [Compound 2, 1-Carbazol-9-yl-3-(3,5-dimethyl-pyrazol-1-yl)-propan-2-ol]
P-gp [2]
  effect on Rho123 efflux/accumulation: relatively effective
P-gp [3]
  effect on daunorubicin accumulation: weak influence

## Cc1cc(OCC(=O)Nc2ccc3nn(-c4ccccc4)nc3c2)cc(C)c1Cl [Compound 7, 2-(4-Chloro-3,5-dimethyl-phenoxy)-N-(2-phenyl-2H-benzotriazol-5-yl)-acetamide]
P-gp [2]
  effect on Rho123 efflux/accumulation: relatively effective
P-gp [3]
  effect on daunorubicin accumulation: weak influence

## Cc1ccc2c(C)nc(N/C(N)=N/C(=O)Cc3ccc(Cl)cc3)nc2c1 [Compound 8, N-[2-(4-Chloro-phenyl)-acetyl]-N′-(4,7-dimethyl-quinazolin-2-yl)-guanidine]
P-gp [2]
  effect on Rho123 efflux/accumulation: relatively effective
P-gp [3]
  effect on daunorubicin accumulation: weak influence

## COc1cc2cnc3c(c(Cc4ccccc4)nn3-c3ccccc3)c2cc1OC [Compound 9, 1-Benzyl-7,8-dimethoxy-3-phenyl-3H-pyrazolo[3,4-c]isoquinoline]
P-gp [2]
  effect on Rho123 efflux/accumulation: relatively effective
P-gp [3]
  effect on daunorubicin accumulation: weak influence

## Cc1ccc(OCC(=O)Nc2ccc(O)c(-c3nc4ccccc4o3)c2)cc1 [Compound 10, N-(3-Benzooxazol-2-yl-4-hydroxy-phenyl)-2-p-tolyloxy-acetamide]
P-gp [2]
  effect on Rho123 efflux/accumulation: relatively effective
P-gp [3]
  effect on daunorubicin accumulation: weak influence

## C=CCn1c2ccccc2n2cc(-c3ccccc3)nc12 [Compound 11, 8-Allyl-2-phenyl-8H-1,3a,8-triaza-cyclopenta[a]indene]
P-gp [2]
  effect on Rho123 efflux/accumulation: strong effect
P-gp [3]
  effect on daunorubicin accumulation: two to four times less pronounced effect
Mouse ConA cells
  protection of cells from cytotoxicity of DMBA: strong protective effect

## COc1ccccc1-c1nc(Cc2ccc(Cl)cc2)no1 [Compound 12, 3-(4-Chloro-benzyl)-5-(2-methoxy-phenyl)-[1,2,4]oxadiazole]
P-gp [3]; ConA cells (FIG. 8)
  stimulation of P-gp-mediated efflux of daunorubicin relative to Rho123: more effective

## Nc1nc(SCCc2ccccc2)nc2sc3c(c12)CCCC3 [Compound 13, 2-Phenethylsulfanyl-5,6,7,8-tetrahydro-benzo[4,5]thieno[2,3-d]pyrimidin-4-ylamine]
P-gp [2]
  effect on Rho123 efflux/accumulation: strong effect
P-gp [3]
  effect on daunorubicin accumulation: two to four times less pronounced effect
Mouse ConA cells
  protection of cells from cytotoxicity of DMBA: strong protective effect

## CCOC(=O)Cn1c2ccccc2c2nc3cc4ccccc4cc3nc21 [Compound 14, (5,12,13-Triaza-indeno[1,2-b]anthracen-13-yl)-acetic acid ethyl ester]
P-gp [3]
  effect on daunorubicin accumulation: no effect

## Oc1ccccc1-c1nc(-c2ccccc2O)n(-c2ccccc2)n1 [Compound 15, 2,2′-(1-phenyl-1H-1,2,4-triazole-3,5-diyl)bis-phenol]
P-gp [2]
  effect on Rho123 efflux/accumulation: relatively effective
P-gp [3]
  effect on daunorubicin accumulation: weak influence

## Cc1ccc(-c2nnc(-c3ccccc3Cl)o2)s1 [Compound 16, 2-(2-Chloro-phenyl)-5-(5-methyl-thiophen-2-yl)-[1,3,4]oxadiazole]
P-gp [2]
  effect on Rho123 efflux/accumulation: relatively effective
P-gp [3]
  effect on daunorubicin accumulation: weak influence
Mouse ConA cells
  protection of cells from cytotoxicity of DMBA: strong protective effect

## COc1cccc2c1C(=O)c1c(O)c3c(c(O)c1C2=O)C[C@@](O)(C(C)=O)C[C@@H]3O[C@H]1C[C@H](N)[C@H](O)[C@H](C)O1 [Daunorubicin, daunorubicin]
P-gp [1]
  cytotoxicity of the drug in the presence of Compound 102: less toxic
ConA cells; ConA cells
  Change in sensitivity (x-fold): 2.5 x-fold
ConA cells
  Effect of Compound 102 on drug sensitivity of cell lines: ConA (Balb 3T3): R

## COc1cc([C@@H]2c3cc4c(cc3[C@@H](O[C@@H]3O[C@@H]5CO[C@@H](C)O[C@H]5[C@H](O)[C@H]3O)[C@H]3COC(=O)[C@H]23)OCO4)cc(OC)c1O [Etoposide, etoposide]
P-gp [1]
  cytotoxicity of the drug in the presence of Compound 102: less toxic
ConA cells; ConA cells
  Change in sensitivity (x-fold): 1.5 x-fold
ConA cells
  Effect of Compound 102 on drug sensitivity of cell lines: ConA (Balb 3T3): Minor R

## CCOc1ccc(-c2nc3ccc(-c4nc5ccc(N6CCN(C)CC6)cc5[nH]4)cc3[nH]2)cc1 [Hoechst 33342]
P-gp [1]; [4]
  cytotoxicity of the drug in the presence of Compound 102: more potent
ConA cells
  Effect of Compound 102 on drug sensitivity of cell lines: ConA (Balb 3T3): S?

## COc1ccc(C[C@H](N)C(=O)N[C@H]2[C@@H](O)[C@H](n3cnc4c(N(C)C)ncnc43)O[C@@H]2CO)cc1 [Puromycin, puromycin]
P-gp [1]
  cytotoxicity of the drug in the presence of Compound 102: do not change their cytotoxicity
ConA cells; ConA cells
  Change in sensitivity (x-fold): 1 x-fold

## CC(=O)O[C@H]1C(=O)[C@@]2(C)[C@H]([C@H](OC(=O)c3ccccc3)[C@]3(O)C[C@H](OC(=O)[C@H](O)[C@@H](NC(=O)c4ccccc4)c4ccccc4)C(C)=C1C3(C)C)[C@]1(OC(C)=O)CO[C@@H]1C[C@@H]2O [Taxol, taxol]
P-gp [1]
  cytotoxicity of the drug in the presence of Compound 102: more potent
ConA cells; ConA cells
  Change in sensitivity (x-fold): 0.3 x-fold
ConA cells
  Effect of Compound 102 on drug sensitivity of cell lines: ConA (Balb 3T3): S

## CC[C@]1(O)C[C@@H]2CN(CCc3c([nH]c4ccccc34)[C@@](C(=O)OC)(c3cc4c(cc3OC)N(C)[C@H]3[C@@](O)(C(=O)OC)[C@H](OC(C)=O)[C@]5(CC)C=CCN6CC[C@]43[C@@H]65)C2)C1 [Vinblastine, vinblastine]
P-gp [1]
  cytotoxicity of the drug in the presence of Compound 102: more potent
ConA cells; ConA cells
  Change in sensitivity (x-fold): 0.5 x-fold
ConA cells
  Effect of Compound 102 on drug sensitivity of cell lines: ConA (Balb 3T3): S

## CC[C@]1(O)C[C@H]2CN(CCc3c([nH]c4ccccc34)[C@@](C(=O)OC)(c3cc4c(cc3OC)N(C=O)[C@H]3[C@@](O)(C(=O)OC)[C@H](OC(C)=O)[C@]5(CC)C=CCN6CC[C@]43[C@@H]65)C2)C1 [Vincristine, vincristine]
P-gp [1]
  cytotoxicity of the drug in the presence of Compound 102: more potent
ConA cells; ConA cells
  Change in sensitivity (x-fold): 0.5 x-fold
ConA cells
  Effect of Compound 102 on drug sensitivity of cell lines: ConA (Balb 3T3): S

## C=C1[C@@H](C)[C@H]2[C@H](Cc3ccccc3)NC(=O)[C@]23[C@H](OC(C)=O)/C=C/[C@@](C)(O)C(=O)[C@@H](C)C/C=C/[C@H]3[C@@H]1O [cytochalasin D]
P-gp [1]; [4]
  cytotoxicity of the drug in the presence of Compound 102: do not change their cytotoxicity

## Rhodamine 123
P-gp [1]
  cytotoxicity of the drug in the presence of Compound 102: less toxic
ConA cells
  Effect of Compound 102 on drug sensitivity of cell lines: ConA (Balb 3T3): R

## gramicidin D [Gramicidine D]
P-gp [1]; [4]
  cytotoxicity of the drug in the presence of Compound 102: more potent
ConA cells
  Effect of Compound 102 on drug sensitivity of cell lines: ConA (Balb 3T3): S
